Measurements from patent publication US20210045385A1, “PYRIDAZINONE-SUBSTITUTED KETOXIMES AS HERBICIDES” (FMC Corporation, priority 2018, published 2021).

Key:
Assay type in all cases: in vivo
[1] = tested on: rice (Oryza sativa); assay: Test D flooded paddy test, visual plant response rating; settings: 250 g ai/ha, scale 0 to 100 (0 no effect, 100 complete control), 13 to 15 d
How it was run: (§1)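 Plants were grown to the 2-leaf stage, pots flooded to 3 cm above soil, and compound applied directly into the paddy water, with the depth held throughout. After 13 to 15 d in a greenhouse, response was rated visually against untreated controls on a 0–100 scale (0 no effect, 100 complete control).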

[2] = tested on: duck salad (Heteranthera limosa); assay: as above; settings: 250 g ai/ha, scale 0 to 100 (0 no effect, 100 complete control), 13 to 15 d
How it was run: as §1

[3] = tested on: sedge umbrella (small-flower umbrella sedge, Cyperus difformis); assay: as above; settings: 250 g ai/ha, scale 0 to 100 (0 no effect, 100 complete control), 13 to 15 d
How it was run: as §1

[4] = tested on: barnyardgrass (Echinochloa crus-galli); assay: as above; settings: 250 g ai/ha, scale 0 to 100 (0 no effect, 100 complete control), 13 to 15 d
How it was run: as §1

[5] = tested on: pigweed (Amaranthus retroflexus); assay: Test C preemergence, visual plant response rating
How it was run: (§2)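 Compounds in a non-phytotoxic solvent with surfactant were applied as a directed soil spray preemergence or to 2–10 cm, one- to two-leaf plants postemergence, in loam–sand soil. After about 10 d in a greenhouse, injury was visually rated against untreated controls on a 0–100 scale (100 = complete control).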

[6] = tested on: foxtail, giant (giant foxtail, Setaria faberi); assay: Test C preemergence, visual plant response rating
How it was run: as §2

[7] = tested on: kochia (Bassia scoparia); assay: Test C preemergence, visual plant response rating
How it was run: as §2

[8] = tested on: ragweed (common ragweed, Ambrosia artemisiifolia); assay: Test C preemergence, visual plant response rating
How it was run: as §2

[9] = tested on: barnyardgrass (Echinochloa crus-galli); assay: Test C preemergence, visual plant response rating
How it was run: as §2

[10] = tested on: Italian ryegrass (Lolium mutiflorum); assay: Test C preemergence, visual plant response rating
How it was run: as §2

[11] = tested on: pigweed (Amaranthus retroflexus); assay: Test C postemergence, visual plant response rating
How it was run: as §2

[12] = tested on: corn (Zea mays); assay: Test C postemergence, visual plant response rating
How it was run: as §2

[13] = tested on: blackgrass (Alopecurus myosuroides); assay: Test C postemergence, visual plant response rating
How it was run: as §2

[14] = tested on: foxtail, giant (giant foxtail, Setaria faberi); assay: Test C postemergence, visual plant response rating
How it was run: as §2

[15] = tested on: kochia (Bassia scoparia); assay: Test C postemergence, visual plant response rating
How it was run: as §2

[16] = tested on: ragweed (common ragweed, Ambrosia artemisiifolia); assay: Test C postemergence, visual plant response rating
How it was run: as §2

[17] = tested on: wheat (Triticum aestivum); assay: Test C postemergence, visual plant response rating
How it was run: as §2

[18] = tested on: galium (catchweed bedstraw, Galium aparine); assay: Test C postemergence, visual plant response rating
How it was run: as §2

[19] = tested on: barnyardgrass (Echinochloa crus-galli); assay: Test C postemergence, visual plant response rating
How it was run: as §2

[20] = tested on: Italian ryegrass (Lolium mutiflorum); assay: Test C postemergence, visual plant response rating
How it was run: as §2

[21] = Test C, 31 g ai/ha, 0 is no effect, 100 is complete control
[22] = Test C, 125 g ai/ha, 0 is no effect, 100 is complete control
[23] = Test C, postemergence, 125 g ai/ha
[24] = Test C, postemergence, 31 g ai/ha

SMILES: CO/N=C(\c1ccc(Cl)c(Cl)c1)c1c(O)c(C)nn(C)c1=O [Compound 217]
- Plant response rating, Rice (Flood) [1]: 0
- Plant response rating, Ducksalad (Flood) [2]: 0
- Plant response rating, Sedge, Umbrella (Flood) [3]: 0
- Plant response rating, Barnyardgrass (Flood) [4]: 0
- Pigweed plant response rating (0 to 100 scale) [5, 21]: 0
- Pigweed plant response rating (0 to 100 scale) [5, 22]: 0
- Foxtail, Giant plant response rating (0 to 100 scale) [6, 21]: 0
- Foxtail, Giant plant response rating (0 to 100 scale) [6, 22]: 0
- Kochia plant response rating (0 to 100 scale) [7, 21]: 0
- Kochia plant response rating (0 to 100 scale) [7, 22]: 20
- Ragweed plant response rating (0 to 100 scale) [8, 21]: 0
- Ragweed plant response rating (0 to 100 scale) [8, 22]: 0
- Barnyardgrass plant response rating (0 to 100 scale) [9, 21]: 0
- Barnyardgrass plant response rating (0 to 100 scale) [9, 22]: 0
- Ryegrass, Italian plant response rating (0 to 100 scale) [10, 21]: 0
- Ryegrass, Italian plant response rating (0 to 100 scale) [10, 22]: 0
- Pigweed plant response rating (0 to 100 scale) ([11]; Postemergence, 31 g ai/ha): 10
- Pigweed plant response rating (0 to 100 scale) [11, 23]: 20
- Corn plant response rating (0 to 100 scale) ([12]; Postemergence, 31 g ai/ha): 0
- Corn plant response rating (0 to 100 scale) [12, 23]: 0
- Blackgrass plant response rating (0 to 100 scale) ([13]; Postemergence, 31 g ai/ha): 0
- Blackgrass plant response rating (0 to 100 scale) [13, 23]: 0
- Foxtail, Giant plant response rating (0 to 100 scale) ([14]; Postemergence, 31 g ai/ha): 0
- Foxtail, Giant plant response rating (0 to 100 scale) [14, 23]: 0
- Kochia plant response rating (0 to 100 scale) ([15]; Postemergence, 31 g ai/ha): 30
- Kochia plant response rating (0 to 100 scale) [15, 23]: 60
- Ragweed plant response rating (0 to 100 scale) ([16]; Postemergence, 31 g ai/ha): 0
- Ragweed plant response rating (0 to 100 scale) [16, 23]: 20
- Wheat plant response rating (0 to 100 scale) ([17]; Postemergence, 31 g ai/ha): 0
- Wheat plant response rating (0 to 100 scale) [17, 23]: 0
- Galium plant response rating (0 to 100 scale) ([18]; Postemergence, 31 g ai/ha): 40
- Galium plant response rating (0 to 100 scale) [18, 23]: 80
- Barnyardgrass plant response rating (0 to 100 scale) ([19]; Postemergence, 31 g ai/ha): 0
- Barnyardgrass plant response rating (0 to 100 scale) [19, 23]: 20
- Ryegrass, Italian plant response rating (0 to 100 scale) ([20]; Postemergence, 31 g ai/ha): 0
- Ryegrass, Italian plant response rating (0 to 100 scale) [20, 23]: 0

SMILES: Cc1nn(C)c(=O)c(/C(=N/OCc2ccccc2)c2ccc(F)c3ccccc23)c1O [Compound 158]
- Plant response rating, Rice (Flood) [1]: 15
- Plant response rating, Ducksalad (Flood) [2]: 50
- Plant response rating, Sedge, Umbrella (Flood) [3]: 65
- Plant response rating, Barnyardgrass (Flood) [4]: 45
- Pigweed plant response rating (0 to 100 scale) ([5]; 125 g ai/ha): 50
- Pigweed plant response rating (0 to 100 scale) [5, 21]: 0
- Foxtail, Giant plant response rating (0 to 100 scale) ([6]; 125 g ai/ha): 80
- Foxtail, Giant plant response rating (0 to 100 scale) [6, 21]: 10
- Kochia plant response rating (0 to 100 scale) ([7]; 125 g ai/ha): 0
- Kochia plant response rating (0 to 100 scale) [7, 21]: 0
- Ragweed plant response rating (0 to 100 scale) ([8]; 125 g ai/ha): 40
- Ragweed plant response rating (0 to 100 scale) [8, 21]: 40
- Barnyardgrass plant response rating (0 to 100 scale) ([9]; 125 g ai/ha): 30
- Barnyardgrass plant response rating (0 to 100 scale) [9, 21]: 20
- Ryegrass, Italian plant response rating (0 to 100 scale) ([10]; 125 g ai/ha): 0
- Ryegrass, Italian plant response rating (0 to 100 scale) [10, 21]: 0
- Pigweed plant response rating (0 to 100 scale) ([11]; Postemergence, 31 g ai/ha): 50
- Pigweed plant response rating (0 to 100 scale) [11, 23]: 50
- Corn plant response rating (0 to 100 scale) [12, 24]: 0
- Corn plant response rating (0 to 100 scale) [12, 23]: 10
- Blackgrass plant response rating (0 to 100 scale) [13, 24]: 0
- Blackgrass plant response rating (0 to 100 scale) [13, 23]: 10
- Foxtail, Giant plant response rating (0 to 100 scale) [14, 24]: 30
- Foxtail, Giant plant response rating (0 to 100 scale) [14, 23]: 70
- Kochia plant response rating (0 to 100 scale) [15, 24]: 0
- Kochia plant response rating (0 to 100 scale) [15, 23]: 0
- Ragweed plant response rating (0 to 100 scale) ([16]; Postemergence, 31 g ai/ha): 40
- Ragweed plant response rating (0 to 100 scale) [16, 23]: 60
- Wheat plant response rating (0 to 100 scale) ([17]; Postemergence, 31 g ai/ha): 0
- Wheat plant response rating (0 to 100 scale) [17, 23]: 0
- Galium plant response rating (0 to 100 scale) [18, 24]: 90
- Galium plant response rating (0 to 100 scale) [18, 23]: 0
- Barnyardgrass plant response rating (0 to 100 scale) [19, 24]: 50
- Barnyardgrass plant response rating (0 to 100 scale) [19, 23]: 70
- Ryegrass, Italian plant response rating (0 to 100 scale) ([20]; Postemergence, 31 g ai/ha): 0
- Ryegrass, Italian plant response rating (0 to 100 scale) [20, 23]: 20

SMILES: C#CCO/N=C(/c1cccc(Br)c1)c1c(O)c(C)nn(C)c1=O [Compound 277]
- Plant response rating, Rice (Flood) [1]: 0
- Plant response rating, Ducksalad (Flood) [2]: 0
- Plant response rating, Sedge, Umbrella (Flood) [3]: 0
- Plant response rating, Barnyardgrass (Flood) [4]: 0
- Pigweed plant response rating (0 to 100 scale) [5, 21]: 10
- Pigweed plant response rating (0 to 100 scale) [5, 22]: 70
- Foxtail, Giant plant response rating (0 to 100 scale) [6, 21]: 10
- Foxtail, Giant plant response rating (0 to 100 scale) [6, 22]: 30
- Kochia plant response rating (0 to 100 scale) [7, 21]: 0
- Kochia plant response rating (0 to 100 scale) [7, 22]: 90
- Ragweed plant response rating (0 to 100 scale) [8, 21]: 20
- Ragweed plant response rating (0 to 100 scale) [8, 22]: 80
- Barnyardgrass plant response rating (0 to 100 scale) [9, 21]: 0
- Barnyardgrass plant response rating (0 to 100 scale) [9, 22]: 30
- Ryegrass, Italian plant response rating (0 to 100 scale) [10, 21]: 10
- Ryegrass, Italian plant response rating (0 to 100 scale) [10, 22]: 100
- Pigweed plant response rating (0 to 100 scale) ([11]; Postemergence, 31 g ai/ha): 40
- Pigweed plant response rating (0 to 100 scale) [11, 23]: 60
- Corn plant response rating (0 to 100 scale) ([12]; Postemergence, 31 g ai/ha): 10
- Corn plant response rating (0 to 100 scale) [12, 23]: 30
- Blackgrass plant response rating (0 to 100 scale) ([13]; Postemergence, 31 g ai/ha): 30
- Blackgrass plant response rating (0 to 100 scale) [13, 23]: 80
- Foxtail, Giant plant response rating (0 to 100 scale) ([14]; Postemergence, 31 g ai/ha): 10
- Foxtail, Giant plant response rating (0 to 100 scale) [14, 23]: 60
- Kochia plant response rating (0 to 100 scale) ([15]; Postemergence, 31 g ai/ha): 50
- Kochia plant response rating (0 to 100 scale) [15, 23]: 70
- Ragweed plant response rating (0 to 100 scale) ([16]; Postemergence, 31 g ai/ha): 40
- Ragweed plant response rating (0 to 100 scale) [16, 23]: 90
- Wheat plant response rating (0 to 100 scale) ([17]; Postemergence, 31 g ai/ha): 30
- Wheat plant response rating (0 to 100 scale) [17, 23]: 70
- Galium plant response rating (0 to 100 scale) ([18]; Postemergence, 31 g ai/ha): 70
- Galium plant response rating (0 to 100 scale) [18, 23]: 80
- Barnyardgrass plant response rating (0 to 100 scale) ([19]; Postemergence, 31 g ai/ha): 20
- Barnyardgrass plant response rating (0 to 100 scale) [19, 23]: 60
- Ryegrass, Italian plant response rating (0 to 100 scale) ([20]; Postemergence, 31 g ai/ha): 40
- Ryegrass, Italian plant response rating (0 to 100 scale) [20, 23]: 70
